Data from patent US20070167631A1, “Novel herbicides” (priority 2003, published 2007).

Each compound was assayed on Panicum (assay: Pre-emergence herbicidal action (Example B1)). Conditions: 250 g/ha, after 4 weeks, rating scale 10=total damage, 0=no action.
Type: in vivo
Experimental: (§1) Monocotyledonous and dicotyledonous test plants are sown in standard soil in pots or seed trays. Immediately after sowing, the test compounds, in the form of an aqueous suspension (prepared from a wettable powder (Example F3, b) according to WO 97/34485) or in the form of an emulsion (prepared from an emulsifiable concentrate (Example F1, c) according to WO 97/34485), are applied by spraying in a concentration of 250 g/ha. The test plants are then grown in a greenhouse under optimum conditions. After a test duration of 4 weeks, the test is evaluated in accordance with a scale of eleven ratings (10=total damage, 0=no action). Ratings of from 10 to 7 (especially from 10 to 8) indicate very good to good herbicidal action.

| Compound | Pre-emergence action: Panicum |
| --- | --- |
| CC1CC(=O)C(C(=O)c2ccc(C(F)(F)F)c(N3CCOCC3)n2)=C(O)C1 (centres unmarked) [Compound 3.069] | 10 |
| CC1CCC(O)=C(C(=O)c2ccc(C(F)(F)F)c(N3CCOCC3)n2)C1=O (centres unmarked) [Compound 3.071] | 10 |
| CC1(C)CCC(O)=C(C(=O)c2ccc(C(F)(F)F)c(N3CCOCC3)n2)C1=O [Compound 3.072] | 9 |
| CC1CC(O)=C(C(=O)c2ccc(C(F)(F)F)c(N3CCOCC3)n2)C(=O)C1(C)C (centres unmarked) [Compound 3.073] | 10 |

What follows are compounds tested on Scirpus (assay: Pre-emergence herbicidal action (Example B1)). Conditions: 250 g/ha, after 4 weeks, rating scale 10=total damage, 0=no action.
Type: in vivo
Experimental: as §1

| Compound | Pre-emergence action: Scirpus |
| --- | --- |
| CC1CC(=O)C(C(=O)c2ccc(C(F)(F)F)c(N3CCOCC3)n2)=C(O)C1 (centres unmarked) [Compound 3.069] | 5 |
| CC1CCC(O)=C(C(=O)c2ccc(C(F)(F)F)c(N3CCOCC3)n2)C1=O (centres unmarked) [Compound 3.071] | 8 |
| CC1(C)CCC(O)=C(C(=O)c2ccc(C(F)(F)F)c(N3CCOCC3)n2)C1=O [Compound 3.072] | 7 |
| CC1CC(O)=C(C(=O)c2ccc(C(F)(F)F)c(N3CCOCC3)n2)C(=O)C1(C)C (centres unmarked) [Compound 3.073] | 7 |

These compounds were tested on Echinochloa (assay: Pre-emergence herbicidal action (Example B1)). Conditions: 250 g/ha, after 4 weeks, rating scale 10=total damage, 0=no action.
Type: in vivo
Experimental: as §1

| Compound | Pre-emergence action: Echinochloa |
| --- | --- |
| CC1CC(=O)C(C(=O)c2ccc(C(F)(F)F)c(N3CCOCC3)n2)=C(O)C1 (centres unmarked) [Compound 3.069] | 10 |
| CC1CCC(O)=C(C(=O)c2ccc(C(F)(F)F)c(N3CCOCC3)n2)C1=O (centres unmarked) [Compound 3.071] | 10 |
| CC1(C)CCC(O)=C(C(=O)c2ccc(C(F)(F)F)c(N3CCOCC3)n2)C1=O [Compound 3.072] | 10 |
| CC1CC(O)=C(C(=O)c2ccc(C(F)(F)F)c(N3CCOCC3)n2)C(=O)C1(C)C (centres unmarked) [Compound 3.073] | 7 |

What follows are compounds tested on Chenopodium (assay: Pre-emergence herbicidal action (Example B1)). Conditions: 250 g/ha, after 4 weeks, rating scale 10=total damage, 0=no action.
Type: in vivo
Experimental: as §1

| Compound | Pre-emergence action: Chenopodium |
| --- | --- |
| CC1CC(=O)C(C(=O)c2ccc(C(F)(F)F)c(N3CCOCC3)n2)=C(O)C1 (centres unmarked) [Compound 3.069] | 6 |
| CC1CCC(O)=C(C(=O)c2ccc(C(F)(F)F)c(N3CCOCC3)n2)C1=O (centres unmarked) [Compound 3.071] | 6 |
| CC1(C)CCC(O)=C(C(=O)c2ccc(C(F)(F)F)c(N3CCOCC3)n2)C1=O [Compound 3.072] | 8 |
| CC1CC(O)=C(C(=O)c2ccc(C(F)(F)F)c(N3CCOCC3)n2)C(=O)C1(C)C (centres unmarked) [Compound 3.073] | 7 |

What follows are compounds tested on Digitaria (assay: Pre-emergence herbicidal action (Example B1)). Conditions: 250 g/ha, after 4 weeks, rating scale 10=total damage, 0=no action.
Type: in vivo
Experimental: as §1

| Compound | Pre-emergence action: Digitaria |
| --- | --- |
| CC1CC(=O)C(C(=O)c2ccc(C(F)(F)F)c(N3CCOCC3)n2)=C(O)C1 (centres unmarked) [Compound 3.069] | 10 |
| CC1CCC(O)=C(C(=O)c2ccc(C(F)(F)F)c(N3CCOCC3)n2)C1=O (centres unmarked) [Compound 3.071] | 10 |
| CC1(C)CCC(O)=C(C(=O)c2ccc(C(F)(F)F)c(N3CCOCC3)n2)C1=O [Compound 3.072] | 10 |
| CC1CC(O)=C(C(=O)c2ccc(C(F)(F)F)c(N3CCOCC3)n2)C(=O)C1(C)C (centres unmarked) [Compound 3.073] | 9 |

What follows are compounds tested on Abutilon (assay: Pre-emergence herbicidal action (Example B1)). Conditions: 250 g/ha, after 4 weeks, rating scale 10=total damage, 0=no action.
Type: in vivo
Experimental: as §1

| Compound | Pre-emergence action: Abutilon |
| --- | --- |
| CC1CC(=O)C(C(=O)c2ccc(C(F)(F)F)c(N3CCOCC3)n2)=C(O)C1 (centres unmarked) [Compound 3.069] | 10 |
| CC1CCC(O)=C(C(=O)c2ccc(C(F)(F)F)c(N3CCOCC3)n2)C1=O (centres unmarked) [Compound 3.071] | 9 |
| CC1(C)CCC(O)=C(C(=O)c2ccc(C(F)(F)F)c(N3CCOCC3)n2)C1=O [Compound 3.072] | 9 |
| CC1CC(O)=C(C(=O)c2ccc(C(F)(F)F)c(N3CCOCC3)n2)C(=O)C1(C)C (centres unmarked) [Compound 3.073] | 5 |

The compounds below were run on Amaranthus (assay: Pre-emergence herbicidal action (Example B1)). Conditions: 250 g/ha, after 4 weeks, rating scale 10=total damage, 0=no action.
Type: in vivo
Experimental: as §1

| Compound | Pre-emergence action: Amaranthus |
| --- | --- |
| CC1CC(=O)C(C(=O)c2ccc(C(F)(F)F)c(N3CCOCC3)n2)=C(O)C1 (centres unmarked) [Compound 3.069] | 10 |
| CC1CCC(O)=C(C(=O)c2ccc(C(F)(F)F)c(N3CCOCC3)n2)C1=O (centres unmarked) [Compound 3.071] | 8 |
| CC1(C)CCC(O)=C(C(=O)c2ccc(C(F)(F)F)c(N3CCOCC3)n2)C1=O [Compound 3.072] | 3 |
| CC1CC(O)=C(C(=O)c2ccc(C(F)(F)F)c(N3CCOCC3)n2)C(=O)C1(C)C (centres unmarked) [Compound 3.073] | 0 |

Each compound was assayed on Xanthium (assay: Post-emergence herbicidal action (Example B2)). Conditions: 250 g/ha, after about 18 days, rating scale 10=total damage, 0=no action.
Type: in vivo
From the text: (§2) Monocotyledonous and dicotyledonous test plants are cultivated in a greenhouse in standard soil in plastic pots and, at the 4- to 6-leaf stage, are sprayed with an aqueous suspension of the test compounds of formula I prepared from a 25% wettable powder (Example F3, b) according to WO 97/34485) or with an emulsion of the test compounds of formula I prepared from a 25% emulsifiable concentrate (Example F1, c) according to WO 97/34485), corresponding to concentrations of 125 and 250 g of active ingredient per hectare (500 litres of water per ha). The test plants are then grown on in the greenhouse under optimum conditions. After a test duration of about 18 days, the test is evaluated in accordance with a scale of eleven ratings (10=total damage, 0=no action). Ratings of from 10 to 7 (especially from 10 to 8) indicate very good to good herbicidal action.

| Compound | Post-emergence action: Xanthium |
| --- | --- |
| CC1CC(=O)C(C(=O)c2ccc(C(F)(F)F)c(N3CCOCC3)n2)=C(O)C1 (centres unmarked) [Compound 3.069] | 8 |
| CC1CCC(O)=C(C(=O)c2ccc(C(F)(F)F)c(N3CCOCC3)n2)C1=O (centres unmarked) [Compound 3.071] | 8 |
| CC1(C)CCC(O)=C(C(=O)c2ccc(C(F)(F)F)c(N3CCOCC3)n2)C1=O [Compound 3.072] | 8 |
| CC1CC(O)=C(C(=O)c2ccc(C(F)(F)F)c(N3CCOCC3)n2)C(=O)C1(C)C (centres unmarked) [Compound 3.073] | 7 |

These compounds were tested on Panicum (assay: Post-emergence herbicidal action (Example B2)). Conditions: 250 g/ha, after about 18 days, rating scale 10=total damage, 0=no action.
Type: in vivo
From the text: as §2

| Compound | Post-emergence action: Panicum |
| --- | --- |
| CC1CC(=O)C(C(=O)c2ccc(C(F)(F)F)c(N3CCOCC3)n2)=C(O)C1 (centres unmarked) [Compound 3.069] | 8 |
| CC1CCC(O)=C(C(=O)c2ccc(C(F)(F)F)c(N3CCOCC3)n2)C1=O (centres unmarked) [Compound 3.071] | 9 |
| CC1(C)CCC(O)=C(C(=O)c2ccc(C(F)(F)F)c(N3CCOCC3)n2)C1=O [Compound 3.072] | 8 |
| CC1CC(O)=C(C(=O)c2ccc(C(F)(F)F)c(N3CCOCC3)n2)C(=O)C1(C)C (centres unmarked) [Compound 3.073] | 7 |

Each compound was assayed on Echinochloa (assay: Post-emergence herbicidal action (Example B2)). Conditions: 250 g/ha, after about 18 days, rating scale 10=total damage, 0=no action.
Type: in vivo
From the text: as §2

| Compound | Post-emergence action: Echinochloa |
| --- | --- |
| CC1CC(=O)C(C(=O)c2ccc(C(F)(F)F)c(N3CCOCC3)n2)=C(O)C1 (centres unmarked) [Compound 3.069] | 7 |
| CC1CCC(O)=C(C(=O)c2ccc(C(F)(F)F)c(N3CCOCC3)n2)C1=O (centres unmarked) [Compound 3.071] | 8 |
| CC1(C)CCC(O)=C(C(=O)c2ccc(C(F)(F)F)c(N3CCOCC3)n2)C1=O [Compound 3.072] | 7 |
| CC1CC(O)=C(C(=O)c2ccc(C(F)(F)F)c(N3CCOCC3)n2)C(=O)C1(C)C (centres unmarked) [Compound 3.073] | 8 |

Each compound was assayed on Euphorbia (assay: Post-emergence herbicidal action (Example B2)). Conditions: 250 g/ha, after about 18 days, rating scale 10=total damage, 0=no action.
Type: in vivo
From the text: as §2

| Compound | Post-emergence action: Euphorbia |
| --- | --- |
| CC1CC(=O)C(C(=O)c2ccc(C(F)(F)F)c(N3CCOCC3)n2)=C(O)C1 (centres unmarked) [Compound 3.069] | 5 |
| CC1CCC(O)=C(C(=O)c2ccc(C(F)(F)F)c(N3CCOCC3)n2)C1=O (centres unmarked) [Compound 3.071] | 7 |
| CC1(C)CCC(O)=C(C(=O)c2ccc(C(F)(F)F)c(N3CCOCC3)n2)C1=O [Compound 3.072] | 7 |
| CC1CC(O)=C(C(=O)c2ccc(C(F)(F)F)c(N3CCOCC3)n2)C(=O)C1(C)C (centres unmarked) [Compound 3.073] | 7 |

What follows are compounds tested on Chenopodium (assay: Post-emergence herbicidal action (Example B2)). Conditions: 250 g/ha, after about 18 days, rating scale 10=total damage, 0=no action.
Type: in vivo
From the text: as §2

| Compound | Post-emergence action: Chenopodium |
| --- | --- |
| CC1CC(=O)C(C(=O)c2ccc(C(F)(F)F)c(N3CCOCC3)n2)=C(O)C1 (centres unmarked) [Compound 3.069] | 10 |
| CC1CCC(O)=C(C(=O)c2ccc(C(F)(F)F)c(N3CCOCC3)n2)C1=O (centres unmarked) [Compound 3.071] | 10 |
| CC1(C)CCC(O)=C(C(=O)c2ccc(C(F)(F)F)c(N3CCOCC3)n2)C1=O [Compound 3.072] | 9 |
| CC1CC(O)=C(C(=O)c2ccc(C(F)(F)F)c(N3CCOCC3)n2)C(=O)C1(C)C (centres unmarked) [Compound 3.073] | 9 |

These compounds were tested on Stellaria (assay: Post-emergence herbicidal action (Example B2)). Conditions: 250 g/ha, after about 18 days, rating scale 10=total damage, 0=no action.
Type: in vivo
From the text: as §2

| Compound | Post-emergence action: Stellaria |
| --- | --- |
| CC1CC(=O)C(C(=O)c2ccc(C(F)(F)F)c(N3CCOCC3)n2)=C(O)C1 (centres unmarked) [Compound 3.069] | 7 |
| CC1CCC(O)=C(C(=O)c2ccc(C(F)(F)F)c(N3CCOCC3)n2)C1=O (centres unmarked) [Compound 3.071] | 8 |
| CC1(C)CCC(O)=C(C(=O)c2ccc(C(F)(F)F)c(N3CCOCC3)n2)C1=O [Compound 3.072] | 8 |
| CC1CC(O)=C(C(=O)c2ccc(C(F)(F)F)c(N3CCOCC3)n2)C(=O)C1(C)C (centres unmarked) [Compound 3.073] | 7 |

What follows are compounds tested on Amaranthus (assay: Post-emergence herbicidal action (Example B2)). Conditions: 250 g/ha, after about 18 days, rating scale 10=total damage, 0=no action.
Type: in vivo
From the text: as §2

| Compound | Post-emergence action: Amaranthus |
| --- | --- |
| CC1CC(=O)C(C(=O)c2ccc(C(F)(F)F)c(N3CCOCC3)n2)=C(O)C1 (centres unmarked) [Compound 3.069] | 8 |
| CC1CCC(O)=C(C(=O)c2ccc(C(F)(F)F)c(N3CCOCC3)n2)C1=O (centres unmarked) [Compound 3.071] | 8 |
| CC1(C)CCC(O)=C(C(=O)c2ccc(C(F)(F)F)c(N3CCOCC3)n2)C1=O [Compound 3.072] | 7 |
| CC1CC(O)=C(C(=O)c2ccc(C(F)(F)F)c(N3CCOCC3)n2)C(=O)C1(C)C (centres unmarked) [Compound 3.073] | 4 |
